Assay results published in patent US5763577A, “Substituted tetra- and pentapeptide inhibitors of protein: farnesyl transferase” (Warner-Lambert Company, priority 1996, dated 1998).
Where a name gives a salt, the structure may show the parent alone. Non-standard residues stand in square brackets, D forms with d. Residues, ends and D or L forms follow the SMILES beside them. *: point of attachment. Cbz = O=C(OCc1ccccc1)*; Bn = c1ccc(C*)cc1

Target: T1, rat brain farnesyl protein transferase (Rattus norvegicus, UniProt Q02293+Q04631)
T1 construct: 40-fold purified rat brain farnesyl protein transferase; from tissue; host or cells: rat brain
Experiment: PFT inhibitory activity assay (3H-farnesyl pyrophosphate, biotinyl peptide, streptavidin beads)
Format: biochemical
Conditions: 30 mM potassium phosphate buffer pH 7.4; FPP 0.12 μM; (biotinyl)-Ahe-Tyr-Lys-Cys-Val-Ile-Met 0.1 μM; 37° C, 30 minutes
Method: The PFT inhibitory activity of compounds of Formula I was assayed in 30 mM potassium phosphate buffer, pH 7.4, containing 7 mM DTT, 1.2 MM MgCl2, 0.1 mM leupeptin, 0.1 mM pepstatin, and 0.2 mM phenylmethylsulfonyl fluoride. Assays were performed in 96 well plates (Wallec) and employed solutions composed of varying concentrations of a compound of Formula I in 100% DMSO. Upon addition of both substrates, radiolabeled farnesyl pyrophosphate ([1-^3 H], specific activity 15-30 Ci/mmol, final concentration 0.12 μM) and (biotinyl)-Ahe-Tyr-Lys-Cys-Val-Ile-Met peptide (final concentration 0.1 μM), the Seq ID NO:59 enzyme reaction was started by addition of 40-fold purified rat brain farnesyl protein transferase. After incubation at 37° C for 30 minutes, the reaction was terminated by diluting the reaction 2.5-fold with a stop buffer containing 1.5M magnesium acetate, 0.2M H3 PO4, 0.5% BSA, and strepavidin beads (Amersham) at a concentration of 1.3 mg/mL. After allowing the plate to settle for 30 minutes at room temperature, radioactivity was quantitated on a microBeta counter (model 1450, Wallec).

Row | SMILES | IC50 [nM]
1 | C[C@@H](NC(=O)[C@H](COCc1ccccc1)NC(=O)[C@H](Cc1ccc(OCc2ccccc2)cc1)NC(=O)[C@H](Cc1c[nH]cn1)NC(=O)OCc1ccccc1)C(=O)O [Cbz--His--Tyr(OBn)--Ser(OBn)--DAla--OH, N-[N-[N-[N-[(Phenylmethoxy)carbonyl]-L-histidyl]-O-(phenylmethyl)-L-tyrosyl]-O-(phenylmethyl)-L-seryl]-D-alanine, monohydrochloride] (Cbz-HY(Bn)S(Bn)[dA]-OH) | 404
2 | COC(=O)[C@@H](C)NC(=O)[C@H](COCc1ccccc1)NC(=O)[C@H](Cc1ccc(OCc2ccccc2)cc1)NC(=O)[C@H](Cc1c[nH]cn1)NC(=O)OCc1ccccc1 [Cbz--His--Tyr(OBn)--Ser(OBn)--DAla--OM2, N-[N-[N-[N-[(Phenylmethoxy)carbonyl]-L-histidyl]-O-(phenylmethyl)-L-tyrosyl]-O-(phenylmethyl)-L-seryl]-D-alanine, methyl ester] (Cbz-HY(Bn)S(Bn)[dA]-OMe) | 142
